The source of these data is article PMC10700673, “A Smart Intracellular Self‐Assembling Bioorthogonal Raman Active Nanoprobe for Targeted Tumor Imaging” (Advanced Science, 2023).

The nature of data set [1]: in vivo toxicity and biocompatibility. The arrangement: species or system healthy female rag2 mice. To be noted: 7 days after IV 100 µL, 0.0125 mmol kg-1, n = 3. The source says:
The in vivo toxicity and biocompatibility of nanoSABER were investigated following IV injection of nanoSABER in mice (Figure 7a). […] In addition, we examined various common indicators related to renal function (Figure 7c), liver function (Figure 7d), and bone marrow function (Figure 7e). […] These findings further confirm the biocompatibility and safety of the nanoSABER for in vivo targeted tumor imaging.
Figure 7 a) Schematic illustration of in vivo toxicity and biocompatibility assessment 7 days after IV injection of nanoSABER. b) Histology of major organs excised and stained with H&E for PBS (control) or nanoSABER injection. c) Kidney function test for blood plasma and urine. d) Liver function test for the enzymes aspartate transaminase (AST), alkaline phosphatase (ALP), and alanine transaminase (ALT) in blood plasma. e) Bone marrow function test for red blood cells (RBCs), white blood cells (WBCs), and platelets in blood plasma. All data are presented as mean ± standard deviation, n = 3. p‐Values of <0.001 (***), 0.001 to 0.01 (**), and 0.01 to 0.05 (*) were considered significant.
All animal experiments were carried out under an approved IACUC protocol. The biocompatibility of nanoSABER was evaluated in vivo, using healthy female rag2 mice that were divided into two groups (n = 3 each). […]

The nature of data set [2]: self-assembly into nanoparticles, TEM and DLS. The format is physicochemical. To be noted: probe solution without legumain enzyme. The procedure:
To accurately evaluate the efficiency of the R6‐AAN‐alkyne‐nitrile nanoprobe, time‐dependent Raman measurements were performed (Figure 2g), where the ratio of alkyne/nitrile peak intensity was used as an indicator of the reaction progress. We found as the reaction progressed the alkyne/nitrile peak intensity increased from 0.22±0.01 to 4.4±0.12 and plateaued at a final value of 4.6±0.12 indicating almost complete conversion of nanoSABER to alkyne‐dimer within 3 h. […] To further get insight into the structural arrangements of the self‐assembled dimers, transmission electron microscopy (TEM) was performed. […]
All materials were sourced from Sigma, Chem Impex, or Thermo Fisher and used as received, with purification performed only when explicitly indicated. […] The mass of synthesized peptides was determined using Bruker AutoFLex III Maldi‐TOF or Voyager DE‐STR MALDI‐TOF mass spectrometers. ^1H NMR spectra were obtained on a 400 MHz Bruker Avance at 27 °C in dimethylsulfoxide (DMSO)‐d6. Ultraviolet–visible (UV–Vis) absorption spectra were recorded with a Perkin Elmer Lambda 950 UV–Vis spectrophotometer. […] High‐resolution fluorescence imaging was performed using a Leica SP8 confocal microscope equipped with a 63× oil‐immersion objective. The size distribution of nanoparticles was determined using dynamic light scattering (DLS) (Zetasizer Nano, Malvern Instruments) at room temperature (RT). […]

For “Ac‐Arg‐Arg‐Arg‐Arg‐Arg‐Arg‐Ala‐Ala‐Asn‐Cys(StBu)‐Pra‐Lys‐CBT [nanoSABER]”, the “renal, liver and bone marrow function parameters” value in data set [1] (compared with PBS group) was “fell within a normal reference range”. Besides, the “H&E histology of major organs” value in data set [1] (heart, liver, lung, kidney, spleen) was “no signs of histopathological damage or tissue inflammation”. For the same substance, the “nanoparticles in TEM before addition of legumain” value in data set [2] is “did not show any detectable nanoparticles”.
